Patent publication US9873690B2, “3-indol substituted derivatives, pharmaceutical compositions and methods for use” (Pfizer Inc., priority 2015, dated 2018)

Molecular target: T1, hTDO2 (Homo sapiens, UniProt P48775)
T1 construct: endogenous in cells; host or cells: A172 human brain glioblastoma cells (ATCC CRL-1620)
Experiment: Cellular assay for TDO2 activity determination in A172 cells
Format: cell-based
Conditions: human glioblastoma A172 cells naturally expressing hTDO2; overnight incubation; kynurenine by absorbance at 480 nm
Protocol: The compounds of formula I inhibit the activity of human TDO2 in cells that constitutively express TDO2, such as A172 cells. A172 is a cell line derived from human brain glioblastoma cells. The cells are available from the American Type Culture Collection (ATCC®) as CRL-1620™.
The assay (adapted from Pilotte L et al., Proc Natl Acad Sci USA, 2012, 109(7), 2497-502) was performed in 96-well flat bottom plates seeded with human glioblastoma A172 cells, naturally expressing hTDO2 (prepared as described in Tilman et al., Mol Cancer, 2007, 17(6), 80), at a concentration of 1.25×10^4 cells/well in a final volume of 200 μL. To determine TDO, the cells were incubated overnight at 37° C. at 5% CO2 in IMDM (Invitrogen) supplemented with 2% FBS and 2% penicillin/streptomycin in the presence of the compounds of the present invention, at different concentrations.
The plates were then centrifuged 5 min at 1000 rpm, and 100 μL of the supernatant were collected in a conical plate, 30 μL of TCA 30% were added and a further centrifuged at 3000×g for 10 minutes. 100 μL of the supernatant were collected in a flat bottomed plate and 100 μL of 2% (w/v) 4-(dimethylamino)-benzaldehyde in acetic acid and incubated for 5 min at room temperature. Kynurenine concentrations were determined by measuring the absorbance at 480 nm. A standard curve was made with pure kynurenine. The TDO activity was measured as described above using ten serial concentrations of the compounds of the present invention. Data were fitted using the Prism™ software (GraphPad Software, Inc.) using standard parameters.
The biological activity of representative compounds in human brain glioblastoma cells as determined in the above-referenced assay is summarized in the following table: […]

T1 sequence (P48775 whole entry): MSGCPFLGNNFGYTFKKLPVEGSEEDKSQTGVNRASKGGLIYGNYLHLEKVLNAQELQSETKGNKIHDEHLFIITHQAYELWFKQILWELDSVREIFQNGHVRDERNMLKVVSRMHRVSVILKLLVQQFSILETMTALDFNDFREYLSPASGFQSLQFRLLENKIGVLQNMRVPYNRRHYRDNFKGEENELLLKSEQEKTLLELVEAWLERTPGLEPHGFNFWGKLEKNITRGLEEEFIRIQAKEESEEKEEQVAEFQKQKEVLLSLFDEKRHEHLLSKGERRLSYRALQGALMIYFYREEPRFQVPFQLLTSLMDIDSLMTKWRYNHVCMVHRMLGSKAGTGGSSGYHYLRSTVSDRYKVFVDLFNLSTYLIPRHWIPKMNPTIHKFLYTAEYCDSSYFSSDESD

Compound	IC50 [nM]
CNC(=O)C1NS(=O)(=O)c2ccc(-c3c[nH]c4cc(F)ccc34)cc21 (single isomer, unassigned; (+)) [Example 18, (+)-5-(6-fluoro-1H-indol-3-yl)-N-methyl-2,3-dihydrobenzo[d]isothiazole-3-carboxamide 1,1-dioxide]	5000
CN(C)CCN1Cc2cc(-c3c[nH]c4cc(F)ccc34)ccc2S1(=O)=O [Example 32, 2-(2-(dimethylamino)ethyl)-5-(6-fluoro-1H-indol-3-yl)-2,3-dihydrobenzo[d]isothiazole 1,1-dioxide]	230
O=S1(=O)c2ccc(-c3c[nH]c4cc(F)ccc34)cc2CN1C[C@H](O)CO [Example 34, (S)-2-(2,3-dihydroxypropyl)-5-(6-fluoro-1H-indol-3-yl)-2,3-dihydrobenzo[d]isothiazole 1,1-dioxide]	103
O=S1(=O)c2ccc(-c3c[nH]c4cc(F)ccc34)cc2CN1C1CCNCC1 [Example 36, 5-(6-fluoro-1H-indol-3-yl)-2-(piperidin-4-yl)-2,3-dihydrobenzo[d]isothiazole 1,1-dioxide]	192
CC1c2cc(-c3c[nH]c4cc(F)ccc34)ccc2S(=O)(=O)N1CCN1CCOC1=O (single isomer, unassigned; (+)) [Example 69, (+)-3-(2-(5-(6-fluoro-1H-indol-3-yl)-3-methyl-1,1-dioxidobenzo[d]isothiazol-2(3H)-yl)ethyl)oxazolidin-2-one]	264
CC(=O)NCC1NS(=O)(=O)c2ccc(-c3c[nH]c4cc(F)ccc34)cc21 (single isomer, unassigned; (-)) [Example 23, (−)-N-((5-(6-fluoro-1H-indol-3-yl)-1,1-dioxido-2,3-dihydrobenzo[d]isothiazol-3-yl)methyl)acetamide]	1020
O=S1(=O)c2ccc(-c3c[nH]c4cc(F)ccc34)cc2CN1C1CNC1 [Example 40, 2-(azetidin-3-yl)-5-(6-fluoro-1H-indol-3-yl)-2,3-dihydrobenzo[d]isothiazole 1,1-dioxide]	859
Cc1cc(O)n(CCN2C(C)c3cc(-c4c[nH]c5cc(F)ccc45)ccc3S2(=O)=O)n1 (single isomer, unassigned; (-)) [Example 68, (−)-5-(6-fluoro-1H-indol-3-yl)-2-(2-(5-hydroxy-3-methyl-1H-pyrazol-1-yl)ethyl)-3-methyl-2,3-dihydrobenzo[d]isothiazole 1,1-dioxide]	3460
CN1CC(N2Cc3cc(-c4c[nH]c5cc(F)ccc45)ccc3S2(=O)=O)C1 [Example 41, 5-(6-fluoro-1H-indol-3-yl)-2-(1-methylazetidin-3-yl)-2,3-dihydrobenzo[d]isothiazole 1,1-dioxide]	433
CC1c2cc(-c3c[nH]c4cc(F)ccc34)ccc2S(=O)(=O)N1CCN1CCNCC1=O (single isomer, unassigned; (-)) [Example 65, (−)1-(2-(5-(6-fluoro-1H-indol-3-yl)-3-methyl-1,1-dioxidobenzo[d]isothiazol-2(3H)-yl)ethyl)piperazin-2-one]	546
CC1c2cc(-c3c[nH]c4cc(F)ccc34)ccc2S(=O)(=O)N1CCN1CCNCC1=O (single isomer, unassigned; (+)) [Example 66, (+)1-(2-(5-(6-fluoro-1H-indol-3-yl)-3-methyl-1,1-dioxidobenzo[d]isothiazol-2(3H)-yl)ethyl)piperazin-2-one]	244
CC1c2cc(-c3c[nH]c4cc(F)ccc34)ccc2S(=O)(=O)N1C1CCNCC1 (single isomer, unassigned; (+)) [Example 52, (+)-5-(6-fluoro-1H-indol-3-yl)-3-methyl-2-(piperidin-4-yl)-2,3-dihydrobenzo[d]isothiazole 1,1-dioxide]	563
NCC1NS(=O)(=O)c2ccc(-c3c[nH]c4cc(F)ccc34)cc21 (single isomer, unassigned; (-)) [Example 20, (−)-3-(aminomethyl)-5-(6-fluoro-1H-indol-3-yl)-2,3-dihydrobenzo[d]isothiazole 1,1-dioxide]	430
CN(C)CC1NS(=O)(=O)c2ccc(-c3c[nH]c4cc(F)ccc34)cc21 (single isomer, unassigned; (+)) [Example 26, (+)-3-((dimethylamino)methyl)-5-(6-fluoro-1H-indol-3-yl)-2,3-dihydrobenzo[d]isothiazole 1,1-dioxide]	437
O=S1(=O)c2ccc(-c3c[nH]c4cc(F)ccc34)cc2CN1C[C@@H](O)CO [Example 35, (R)-2-(2,3-dihydroxypropyl)-5-(6-fluoro-1H-indol-3-yl)-2,3-dihydrobenzo[d]isothiazole 1,1-dioxide]	119

Further lines, results first:

IC50 [nM]	Compound
59	CNC(=O)C(C)N1C(C)c2cc(-c3c[nH]c4cc(F)ccc34)ccc2S1(=O)=O (single isomer, unassigned) [Example 147, 2-(5-(6-fluoro-1H-indol-3-yl)-3-methyl-1,1-dioxidobenzo[d]isothiazol-2(3H)-yl)-N-methylpropanamide]
182	O=S1(=O)c2ccc(-c3c[nH]c4cc(F)ccc34)cc2C(CO)N1CCO (single isomer, unassigned; (+)) [Example 131, (+)-5-(6-fluoro-1H-indol-3-yl)-2-(2-hydroxyethyl)-3-(hydroxymethyl)-2,3-dihydrobenzo[d]isothiazole 1,1-dioxide]
142	CNC(=O)CN1C(C)c2cc(-c3c[nH]c4cc(F)ccc34)ccc2S1(=O)=O (single isomer, unassigned; (+)) [Example 112, (+)-2-(5-(6-fluoro-1H-indol-3-yl)-3-methyl-1,1-dioxidobenzo[d]isothiazol-2(3H)-yl)-Nmethylacetamide]
501	CC1c2cc(-c3c[nH]c4cc(F)ccc34)ccc2S(=O)(=O)N1C1CNC(=O)C1 (single isomer, unassigned; (+)) [Example 123, (+)4-(5-(6-fluoro-1H-indol-3-yl)-3-methyl-1,1-dioxidobenzo[d]isothiazol-2(3H)-yl)pyrrolidin-2-one]
79	CNC(=O)CN1C(CO)c2cc(-c3c[nH]c4cc(F)ccc34)ccc2S1(=O)=O (single isomer, unassigned; (+)) [Example 128, (+)-2-(5-(6-fluoro-1H-indol-3-yl)-3-(hydroxymethyl)-1,1-dioxidobenzo[d]isothiazol-2(3H)-yl)-N-methylacetamide]
39	Cn1cnc(CN2C(CO)c3cc(-c4c[nH]c5cc(F)ccc45)ccc3S2(=O)=O)n1 (single isomer, unassigned; (-)) [Example 129, (−)-5-(6-fluoro-1H-indol-3-yl)-3-(hydroxymethyl)-2-((1-methyl-1H-1,2,4-triazol-3-yl)methyl)-2,3-dihydrobenzo[d]isothiazole 1,1-dioxide]
56	CC1c2cc(-c3c[nH]c4cc(F)ccc34)ccc2S(=O)(=O)N1CC1CCN(C)CC1 (single isomer, unassigned; (+)) [Example 80, (+)-5-(6-fluoro-1H-indol-3-yl)-3-methyl-2-((1-methylpiperidin-4-yl)methyl)-2,3-dihydrobenzo[d]isothiazole 1,1-dioxide]
61	CC(=O)N1CCC(N2C(C)c3cc(-c4c[nH]c5cc(F)ccc45)ccc3S2(=O)=O)C1 (single isomer, unassigned; (-)) [Example 76, (−)-1-(3-(5-(6-fluoro-1H-indol-3-yl)-3-methyl-1,1-dioxidobenzo[d]isothiazol-2(3H)-yl)pyrrolidin-1-yl)ethanone]
26	CC1c2cc(-c3c[nH]c4cc(F)ccc34)ccc2S(=O)(=O)N1CC(N)=O (single isomer, unassigned; (-)) [Example 116]
413	CNC(=O)C(N)CN1C(C)c2cc(-c3c[nH]c4cc(F)ccc34)ccc2S1(=O)=O (single isomer, unassigned; (-)) [Example 103, (−)-2-amino-3-(5-(6-fluoro-1H-indol-3-yl)-3-methyl-1,1-dioxidobenzo[d]isothiazol-2(3H)-yl)-N-methylpropanamide]
57	CC1c2cc(-c3c[nH]c4cc(F)ccc34)ccc2S(=O)(=O)N1Cc1ncn(C)n1 (single isomer, unassigned; (-)) [Example 85, (−)-5-(6-fluoro-1H-indol-3-yl)-3-methyl-2-((1-methyl-1H-1,2,4-triazol-3-yl)methyl)-2,3-dihydrobenzo[d]isothiazole 1,1-dioxide]
342	CC(=O)N1CCC(N2C(C)c3cc(-c4c[nH]c5cc(F)ccc45)ccc3S2(=O)=O)CC1 (single isomer, unassigned; (+)) [Example 71, (+)-1-(4-(5-(6-fluoro-1H-indol-3-yl)-3-methyl-1,1-dioxidobenzo[d]isothiazol-2(3H)-yl)piperidin-1-yl)ethanone]
308	CC1c2cc(-c3c[nH]c4cc(F)ccc34)ccc2S(=O)(=O)N1CCN1CCOCC1 (single isomer, unassigned; (-)) [Example 117, (−)-5-(6-fluoro-1H-indol-3-yl)-3-methyl-2-(2-morpholinoethyl)-2,3-dihydrobenzo[d]isothiazole 1,1-dioxide]
